Assay results from patent publication US20050065066A1, “Stabilised insulin compositions” (priority 2002, published 2005).
Like-named read-outs stand apart in the source and are kept apart here.

Legend:
[1] = target: T1, metal site of insulin R6 hexamers (Homo sapiens, UniProt P01308); conditions: taken from Huang et al., 1997; read-out: K4H3N; cited from earlier work
T1 construct: human insulin comprising additional amino acids, i.e. more than 51 amino acids

[2] = Disappearance rate from the subcutaneous depot following injection in pigs; format: in vivo; conditions: disappearance assay
From the text: Formulations of the present invention were characterized by the disappearance rate from the subcutaneous depot following injection in pigs. Formulations of B28 Asp human insulin containing A14Tyr(^125I) B28 Asp human insulin were followed with an external γ-counter (Ribel et al., The pig as a model for subcutaneous absorption in man. In: Serrano-Ritos & Lefebre (Eds.): Diabetes (1985) proceedings ot the 12th congress of the international diabetes federation, Madrid, Spain, 1985 (Excerpta Medica, Amsterdam (1986) 891-896. Formulations of Insulin Aspart (0.6 mM, U100) containing 0.3 mM Zn^2+, 30 mM phenol, 2 mM phosphate buffer, and 1.6% glycerol, pH 7.4, were compared with the corresponding formulations containing 0.3 mM of the ligands shown below: where T50% is the time when 50% ot the A14Tyr(^125I) B28 Asp insulin has disappeared from the site of injection and Kd is the affinity of the ligand as measured by the TZD-assay described in “Analytical methods” below.

[3] = target: T1, metal site of insulin R6 hexamers; test: TZD-assay: fluorescence based displacement assay; format: binding; conditions: affinity towards the zinc site, TZD-assay; read-out: Kd(app)
Protocol: The binding affinity of ligands to the metal site of insulin R6 hexamers are measured in a fluorescense based displacement assay. The fluorescence of 5-(4-dimethylaminobenzylidene)thiazolidine-2,4-dione (TZD) which is a ligand for the metal site of insulin R6 is quenched upon displacement from the metal site to the solution. Titration of a ligand to a stock solution of insulin R6 hexamers with this compound mounted in the metal site allows the binding affinity of these ligands to be determined measuring the fluorescence at 455 nm upon excitation at 410 nm.
Stock solution: 0.02 mM human insulin, 0.007 mM Zn-acetate, 40 mM phenol, 0.01 mM TZD in 50 mM tris buffer adjusted to pH=8.0 with NaOH/ClO4^−.
The ligand is dissolved in DMSO to a concentration of 5 mM and added in aliquots to the stock solution to final concentrations of 0-250 µM.
Fluorescence measurements were carried out on a Perkin Elmer Spectrofluorometer LS50B. T main absorption band was excited at 410 nm and emission was detected at 455 nm. The resolution was 10 nm and 2.5 nm for excitation and emission, respectively.
This equation is fitted to the datapoints ΔF(455 nm))=ΔFmax* [ligand]free/(KD(app)*(1+[TZD]/KTZD)+[ligand]free)) KD(app) is the apparent dissociation constant and Fmax is the fluorescence at maximal ligand concentration. The value of KTZD is measured separately to 230 nM
Two different fitting-procedures can be used. One in which both parameters, KD(app) and Fmax, are adjusted to best fit the data and a second in which the value of Fmax is fixed (Fmax=1) and only KD(app) is adjusted. The given data are from the second fitting procedure. The Solver module of Microsoft Excel can be used to generate the fits from the data points.

[4] = Chemical stability of insulin formulations by RPC (reverse phase chromatography); format: physicochemical; conditions: formulated human insulin, 3 Zn2+ per hexamer
Protocol: (§1) The chemical stability of insulin formulations of the invention was characterised by HPLC (RPC, reverse phase chromatography and SEC, size exclusion chromatography). As reference, insulin formulated without ligands of the invention but with 0.3% DMSO was also investigated and shown below: [drawing]
FIG. 10. Reverse phase chromatography of formulated human insulin with 3 Zn^2+ per hexamer, 30 mM phenol, 150 mM mannitol, 3 mM phosphoric acid, sodium hydroxide to pH 7.4 and 0.3% DMSO corresponding to 3 ligands per hexamer at start (upper panel) and after storage for 2 weeks at 37° C. (lower panel): Preservatives before 20 min., “hydrophilic derivatives” (desamido-insulins) 20 min to main top insulin, “hydrophobic derivatives 1” main top to 64 min., and “hydrophobic derivatives 2” (insulin dimers) after 64 min.
(§2) Storage in HPLC 1 ml vials at 45° C. (5 d), 37° C. (2 w), 30° C. (6 w), 25° C. (10 w), 15° C. (30 w) gave about the same increase of transformation products correlating to an increase in reactions constants of a factor 3-4 per 10 degree.
RPC (reverse phase chromatography) on Waters SymmetryShield RP8 column, 150×4.6 mm and 3.5 μm, eluted by A: 0.2 M sodium sulfate+0.04 M sodium phosphate pH 7.2+10% acetonitrile and isocratically (i) or a gradient (g) of B: 70% acetonitrile [minutes/% B(i/g): 0/19, 21/24(i)(sudden change), 51/24(i), 81/39(g), 81.1/0(i), 82.3/19(i)] at flow of 0.9 mL/min and 30° C.

[5] = Chemical stability of insulin formulations by SEC (size exclusion chromatography); format: physicochemical; conditions: formulated human insulin, 3 Zn2+ per hexamer
Protocol: as §1, §2
SEC (size exclusion chromatography) on Waters insulin HMWP column, 300×7.8 mm, eluted by 15:20:65 of acetic acid: acetonitrile: arginine 1 g/L at flow of 1 mL/min and ambient temperature.

T1 sequence (P01308 25-54 limits assumed): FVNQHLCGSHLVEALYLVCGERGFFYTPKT
T1 sequence (P01308 90-110 limits assumed): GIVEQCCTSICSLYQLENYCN

O=C(O)c1ccc([N+](=O)[O-])c(O)c1 [Example 4H3N, 3-hydroxy-4-nitro benzoic acid]
Kd [1]: 50 µM

O=C1NC(=O)/C(=C/c2cccc3ccccc23)S1 [Example 68, 5-Naphthalen-1-ylmethylenethiazolidine-2,4-dione]
effect on insulin aspart disappearance from subcutaneous injection site [2]: no effect
Kd [3]: 0.023 µM

O=C(O)/C=C/c1ccc(/C=C2\SC(=O)NC2=O)cc1 [Example 462]
hphil (hydrophilic derivatives, desamido-insulins) ([4]; 5° predicted): (0.293) % formed/year
hphob1 (hydrophobic derivatives 1) ([4]; 5° predicted): (0.336) % formed/year
hphob2 (hydrophobic derivatives 2, insulin dimers) ([4]; 5° predicted): (0.062) % formed/year
hphil (hydrophilic derivatives, desamido-insulins) ([4]; 15° C.): 1.02 % formed/year
hphob1 (hydrophobic derivatives 1) ([4]; 15° C.): 1.28 % formed/year
hphob2 (hydrophobic derivatives 2, insulin dimers) ([4]; 15° C.): 0.38 % formed/year
hphil (hydrophilic derivatives, desamido-insulins) ([4]; 25° C.): 2.60 % formed/year
hphob1 (hydrophobic derivatives 1) ([4]; 25° C.): 6.14 % formed/year
hphob2 (hydrophobic derivatives 2, insulin dimers) ([4]; 25° C.): 0.78 % formed/year
hphil (hydrophilic derivatives, desamido-insulins) ([4]; 30° C.): 4.07 % formed/year
hphob1 (hydrophobic derivatives 1) ([4]; 30° C.): 4.42 % formed/year
hphob2 (hydrophobic derivatives 2, insulin dimers) ([4]; 30° C.): 1.65 % formed/year
hphil (hydrophilic derivatives, desamido-insulins) ([4]; 37° C.): 9.88 % formed/year
hphob1 (hydrophobic derivatives 1) ([4]; 37° C.): 19.5 % formed/year
hphob2 (hydrophobic derivatives 2, insulin dimers) ([4]; 37° C.): 4.68 % formed/year
hphil (hydrophilic derivatives, desamido-insulins) ([4]; 45° C.): 20.4 % formed/year
hphob1 (hydrophobic derivatives 1) ([4]; 45° C.): 43.8 % formed/year
hphob2 (hydrophobic derivatives 2, insulin dimers) ([4]; 45° C.): 17.5 % formed/year
effect on insulin aspart disappearance from subcutaneous injection site [2]: no effect
Kd [3]: 0.058 µM
dimer ([5]; 5° predicted): (0.048) % formed/year
dimer ([5]; 15° C.): 0.28 % formed/year
dimer ([5]; 25° C.): 1.09 % formed/year
dimer ([5]; 30° C.): 2.17 % formed/year
dimer ([5]; 37° C.): 6.24 % formed/year
dimer ([5]; 45° C.): 21.2 % formed/year

O=C(O)c1cc2cc(Br)ccc2cc1O [Example 533, 7-bromo-3-hydroxy-2-naphthoic acid]
hphil (hydrophilic derivatives, desamido-insulins) ([4]; 5° predicted): (0.55) % formed/year
hphob1 (hydrophobic derivatives 1) ([4]; 5° predicted): (0.19) % formed/year
hphob2 (hydrophobic derivatives 2, insulin dimers) ([4]; 5° predicted): (0.079) % formed/year
hphil (hydrophilic derivatives, desamido-insulins) ([4]; 15° C.): 1.80 % formed/year
hphob1 (hydrophobic derivatives 1) ([4]; 15° C.): 0.85 % formed/year
hphob2 (hydrophobic derivatives 2, insulin dimers) ([4]; 15° C.): 0.42 % formed/year
hphil (hydrophilic derivatives, desamido-insulins) ([4]; 25° C.): 4.06 % formed/year
hphob1 (hydrophobic derivatives 1) ([4]; 25° C.): 5.67 % formed/year
hphob2 (hydrophobic derivatives 2, insulin dimers) ([4]; 25° C.): 1.46 % formed/year
hphil (hydrophilic derivatives, desamido-insulins) ([4]; 30° C.): 6.76 % formed/year
hphob1 (hydrophobic derivatives 1) ([4]; 30° C.): 6.42 % formed/year
hphob2 (hydrophobic derivatives 2, insulin dimers) ([4]; 30° C.): 2.25 % formed/year
hphil (hydrophilic derivatives, desamido-insulins) ([4]; 37° C.): 12.5 % formed/year
hphob1 (hydrophobic derivatives 1) ([4]; 37° C.): 22.4 % formed/year
hphob2 (hydrophobic derivatives 2, insulin dimers) ([4]; 37° C.): 7.02 % formed/year
hphil (hydrophilic derivatives, desamido-insulins) ([4]; 45° C.): 30.7 % formed/year
hphob1 (hydrophobic derivatives 1) ([4]; 45° C.): 62.1 % formed/year
hphob2 (hydrophobic derivatives 2, insulin dimers) ([4]; 45° C.): 23.4 % formed/year
effect on insulin aspart disappearance from subcutaneous injection site [2]: no effect
Kd [3]: 0.383 µM
dimer ([5]; 5° predicted): (0.087) % formed/year
dimer ([5]; 15° C.): 0.45 % formed/year
dimer ([5]; 25° C.): 1.61 % formed/year
dimer ([5]; 30° C.): 2.86 % formed/year
dimer ([5]; 37° C.): 7.02 % formed/year
dimer ([5]; 45° C.): 26.3 % formed/year

O=C(O)c1ccc(Cn2c3ccccc3c3cc(-c4nn[nH]n4)ccc32)cc1 [Example 738, 9-(4-Carboxybenzyl)-3-(2H-tetrazol-5-yl)-9H-carbazole]
effect on insulin aspart disappearance from subcutaneous injection site [2]: no effect
Kd [3]: 0.171 µM

Cc1ccccc1Cn1c2ccccc2c2cc(-c3nn[nH]n3)ccc21 [Example 756, 9-(2-Methylbenzyl)-3-(2H-tetrazol-5-yl)-9H-carbazole]
effect on insulin aspart disappearance from subcutaneous injection site [2]: no effect
Kd [3]: 0.003 µM
